The supplement of paper PMC11061612

What was measured:
Assay in all cases: Bliss excess, mean over the matrix (fraction); higher = more synergy
[1] = test system: CAPAN-1 (Pancreatic Carcinoma)
Summary of the method: (§1)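 Cell lines in DMEM/F12 or RPMI with 10% FBS were plated in 1536-well plates, held 24 hours at 37°C, 5% CO2, then given two-drug dose matrices for 72 hours (DMSO typically 0.2%). Viability was read by CellTiter-Glo 2.0 luminescence and scaled as inhibition from 0 (vehicle wells) to 1 (blank wells). Combination Emax is the second-highest inhibition in the matrix; Bliss excess is observed combination effect minus expected EA + EB − EA·EB, EA and EB being single-agent effects.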

[2] = test system: Hs-633T (Other Solid Carcinomas)
Summary of the method: as §1

NB14 (Neuroblastoma) = test system: NB14 (Neuroblastoma)
Summary of the method: as §1

[3] = test system: PCI-30 (Head and Neck Carcinoma)
Summary of the method: as §1

[4] = test system: HARA (Squamous Cell Lung Carcinoma)
Summary of the method: as §1

[5] = test system: SW1271 (Small Cell Lung Carcinoma)
Summary of the method: as §1

NCI-H2795 (Mesothelioma) = test system: NCI-H2795 (Mesothelioma)
Summary of the method: as §1

[6] = test system: OC-314 (Ovarian Carcinoma)
Summary of the method: as §1

[7] = test system: EN (Endometrial Carcinoma)
Summary of the method: as §1

[8] = test system: RT-112 (Bladder Carcinoma)
Summary of the method: as §1

[9] = test system: HO-1-u-1 (Oral Cavity Carcinoma)
Summary of the method: as §1

[10] = test system: LU-139 (Small Cell Lung Carcinoma)
Summary of the method: as §1

[11] = test system: 8305C (Thyroid Gland Carcinoma)
Summary of the method: as §1

[12] = test system: NCI-H69 (Small Cell Lung Carcinoma)
Summary of the method: as §1

SH-4 (Melanoma) = test system: SH-4 (Melanoma)
Summary of the method: as §1

[13] = test system: RKO (Colorectal Carcinoma)
Summary of the method: as §1

[14] = test system: SUP-T1 (T-Lymphoblastic Leukemia)
Summary of the method: as §1

NCI-H2461 (Mesothelioma) = test system: NCI-H2461 (Mesothelioma)
Summary of the method: as §1

[15] = test system: CAL-54 (Kidney Carcinoma)
Summary of the method: as §1

NCI-H28 (Mesothelioma) = test system: NCI-H28 (Mesothelioma)
Summary of the method: as §1

Structure (SMILES) | Bliss excess [1] | Bliss excess [2] | Bliss excess (NB14 (Neuroblastoma)) | Bliss excess [3] | Bliss excess [4] | Bliss excess [5] | Bliss excess (NCI-H2795 (Mesothelioma)) | Bliss excess [6] | Bliss excess [7] | Bliss excess [8] | Bliss excess [9] | Bliss excess [10] | Bliss excess [11] | Bliss excess [12] | Bliss excess (SH-4 (Melanoma)) | Bliss excess [13] | Bliss excess [14] | Bliss excess (NCI-H2461 (Mesothelioma)) | Bliss excess [15] | Bliss excess (NCI-H28 (Mesothelioma))
C[C@@H](Oc1cc(-c2cnn(C3CCNCC3)c2)cnc1N)c1c(Cl)ccc(F)c1Cl [Crizotinib] + Cn1cnc2c(F)c(Nc3ccc(Br)cc3Cl)c(C(=O)NOCCO)cc21 [Selumetinib] (first compound max 10 µM, 7x7, partner max 10 µM) | -0.046 | 0.0381 | 0.0218 | -0.0206 | -0.0366 | 0.0503 | -0.0974 | -0.0354 | -0.0542 | -0.043 | -0.0779 | -0.0615 | 0.0017 | -0.0607 | -0.0768 | 0.122 | -0.0501 | -0.0376 | -0.0135 | -0.0004
CN(CCO)CC[C@H](CSc1ccccc1)Nc1ccc(S(=O)(=O)NC(=O)c2ccc(N3CCC([C@@H](O)c4ccccc4-c4ccc(Cl)cc4)CC3)cc2)cc1S(=O)(=O)C(F)(F)F [AZD4320] + CS(=O)(=O)CCNCc1ccc(-c2ccc3ncnc(Nc4ccc(OCc5cccc(F)c5)c(Cl)c4)c3c2)o1 [Lapatinib] (first compound max 1 µM, 7x7, partner max 10 µM) | -0.021 | -0.0023 | 0.0356 | 0.0067 | 0.027 | -0.0178 | 0.0148 | 0.0535 | -0.0532 | 0.0152 | 0.0591 | 0.0054 | -0.0526 | 0.0363 | -0.0411 | 0.0405 | 0.0226 | 0.0115 | 0.0171 | 0.0075
N#Cc1cnc(Nc2cc(NC[C@H]3CNCCO3)c(C(F)(F)F)cn2)cn1 [SRA737] + CCc1c2c(nc3ccc(O)cc13)-c1cc3c(c(=O)n1C2)COC(=O)[C@]3(O)CC [SN-38] (first compound max 10 µM, 7x7, partner max 0.3 µM) | -0.0974 | -0.0402 | -0.0148 | -0.0079 | -0.0628 | -0.0752 | -0.0977 | -0.0056 | -0.0706 | 0.138 | 0.106 | -0.0305 | -0.0419 | 0.0781 | -0.111 | -0.0398 | -0.0989 | -0.0351 | -0.0693 | -0.104
O=C(c1cc(Cc2n[nH]c(=O)c3ccccc23)ccc1F)N1CCN(C(=O)C2CC2)CC1 [Olaparib] + CC1(C)CCC(CN2CCN(c3ccc(C(=O)NS(=O)(=O)c4ccc(NCC5CCOCC5)c([N+](=O)[O-])c4)c(Oc4cnc5[nH]ccc5c4)c3)CC2)=C(c2ccc(Cl)cc2)C1 [Venetoclax] (first compound max 10 µM, 7x7, partner max 1 µM) | -0.0564 | -0.0018 | 0.0052 | -0.0425 | -0.0206 | -0.0258 | -0.0329 | -0.0124 | -0.0025 | -0.0275 | -0.0275 | 0.0408 | -0.0213 | 0.158 | -0.0355 | -0.0151 | -0.0572 | -0.0373 | -0.0496 | -0.0273
C[C@@H](Nc1cc(F)cc(F)c1)c1cc(C(=O)N(C)C)cc2c(=O)cc(N3CCOCC3)oc12 [AZD8186] + CC(=O)c1c(C)c2cnc(Nc3ccc(N4CCNCC4)cn3)nc2n(C2CCCC2)c1=O [Palbociclib] (first compound max 10 µM, 7x7, partner max 10 µM) | -0.0559 | 0.05 | 0.075 | 0.0121 | 0.0281 | 0.0035 | 0.0582 | 0.0774 | -0.0262 | 0.0396 | 0.0138 | -0.025 | 0.0133 | 0.0121 | -0.0303 | 0.0559 | -0.0616 | -0.0113 | 0.0039 | -0.0333
Cc1c2c(nn1C)CSCc1cc(n(C)n1)CSc1cc(c3ccccc3c1)OCCCc1c(C(=O)O)n(C)c3c-2c(Cl)ccc13 [AZD5991] + CC(=O)O[C@H]1C(=O)[C@@]2(C)[C@H]([C@H](OC(=O)c3ccccc3)[C@]3(O)C[C@H](OC(=O)[C@H](O)[C@@H](NC(=O)c4ccccc4)c4ccccc4)C(C)=C1C3(C)C)[C@]1(OC(C)=O)CO[C@@H]1C[C@@H]2O [Paclitaxel] (first compound max 1 µM, 7x7, partner max 3 µM) | -0.0006 | 0.005 | -0.0212 | 0.115 | -0.003 | -0.0228 | 0.044 | -0.0078 | 0.149 | 0.0162 | 0.214 | -0.0361 | -0.0118 | -0.0504 | -0.0331 | 0.0203 | -0.0847 | -0.0417 | -0.0639 | -0.0549
C[C@@H](Oc1cc(-c2cnn(C3CCNCC3)c2)cnc1N)c1c(Cl)ccc(F)c1Cl [Crizotinib] + CC1=C(C(=CC=C1)Cl)NC(=O)C2=CN=C(S2)NC3=CC(=NC(=N3)C)N4CCN(CC4)CCO [Dasatinib] (first compound max 10 µM, 7x7, partner max 2 µM) | -0.0481 | 0.0646 | -0.0123 | 0.0685 | 0.0526 | 0.0464 | 0.0277 | 0.032 | -0.0798 | 0.0179 | -0.0488 | -0.0489 | 0.0122 | 0.0403 | -0.0674 | 0.0106 | -0.009 | -0.0186 | -0.033 | 0.0073
CN(CCO)CC[C@H](CSc1ccccc1)Nc1ccc(S(=O)(=O)NC(=O)c2ccc(N3CCC([C@@H](O)c4ccccc4-c4ccc(Cl)cc4)CC3)cc2)cc1S(=O)(=O)C(F)(F)F [AZD4320] + CC(=O)O[C@H]1C(=O)[C@@]2(C)[C@H]([C@H](OC(=O)c3ccccc3)[C@]3(O)C[C@H](OC(=O)[C@H](O)[C@@H](NC(=O)c4ccccc4)c4ccccc4)C(C)=C1C3(C)C)[C@]1(OC(C)=O)CO[C@@H]1C[C@@H]2O [Paclitaxel] (first compound max 1 µM, 7x7, partner max 3 µM) | 0.0823 | 0.0124 | 0.0064 | 0.177 | 0.0253 | 0.108 | 0.0621 | 0.0084 | 0.068 | 0.0111 | 0.254 | 0.0242 | 0.0435 | 0.0089 | 0.0813 | 0.0012 | -0.024 | 0.0571 | -0.0202 | 0.0394
N#Cc1cnc(Nc2cc(NC[C@H]3CNCCO3)c(C(F)(F)F)cn2)cn1 [SRA737] + Nc1ccn([C@@H]2O[C@H](CO)[C@@H](O)C2(F)F)c(=O)n1 [Gemcitabine] (first compound max 10 µM, 7x7, partner max 0.3 µM) | -0.0582 | 0.0301 | 0.0218 | -0.0288 | -0.0013 | 0.0198 | -0.0258 | 0.108 | -0.0331 | 0.178 | 0.0492 | 0.0091 | -0.0158 | -0.0077 | 0.0138 | -0.0179 | -0.0658 | -0.0309 | -0.0458 | 0.0118
CC1(C)CCC(CN2CCN(c3ccc(C(=O)NS(=O)(=O)c4ccc(NCC5CCOCC5)c([N+](=O)[O-])c4)c(Oc4cnc5[nH]ccc5c4)c3)CC2)=C(c2ccc(Cl)cc2)C1 [Venetoclax] + CS(=O)(=O)CCNCc1ccc(-c2ccc3ncnc(Nc4ccc(OCc5cccc(F)c5)c(Cl)c4)c3c2)o1 [Lapatinib] (first compound max 1 µM, 7x7, partner max 10 µM) | -0.0262 | -0.0041 | 0.0606 | -0.0457 | -0.02 | -0.0239 | -0.058 | 0.0051 | -0.0492 | -0.0371 | 0.0094 | -0.0061 | -0.0112 | 0.0391 | -0.0489 | -0.0366 | -0.0249 | -0.04 | -0.0788 | -0.0426
